Counter-ions that a name gives are not always drawn.
Experiments:
Format in all cases: cell-based
[1] = biological target: T1, Cys residues in primary human T cells (Homo sapiens, UniProt A6NDG6); assay: isoTOP-ABPP of compound-treated primary human T cells; details: PGP C297 (A6NDG6)
T1 sequence (A6NDG6 1-321): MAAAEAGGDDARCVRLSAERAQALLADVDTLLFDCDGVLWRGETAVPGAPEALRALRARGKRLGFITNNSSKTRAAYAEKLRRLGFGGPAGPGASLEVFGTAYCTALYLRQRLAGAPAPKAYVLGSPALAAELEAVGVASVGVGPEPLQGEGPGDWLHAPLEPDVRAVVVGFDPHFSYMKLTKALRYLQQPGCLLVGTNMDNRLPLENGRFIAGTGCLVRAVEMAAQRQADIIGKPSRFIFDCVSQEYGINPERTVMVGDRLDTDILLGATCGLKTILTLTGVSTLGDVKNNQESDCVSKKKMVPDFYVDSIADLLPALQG

[2] = biological target: Cys residues in primary human T cells (Homo sapiens, UniProt O00170); assay: as above; details: AIP C122 (O00170)
Sequence of Cys residues in primary human T cells (Homo sapiens, UniProt O00170) (O00170 whole entry): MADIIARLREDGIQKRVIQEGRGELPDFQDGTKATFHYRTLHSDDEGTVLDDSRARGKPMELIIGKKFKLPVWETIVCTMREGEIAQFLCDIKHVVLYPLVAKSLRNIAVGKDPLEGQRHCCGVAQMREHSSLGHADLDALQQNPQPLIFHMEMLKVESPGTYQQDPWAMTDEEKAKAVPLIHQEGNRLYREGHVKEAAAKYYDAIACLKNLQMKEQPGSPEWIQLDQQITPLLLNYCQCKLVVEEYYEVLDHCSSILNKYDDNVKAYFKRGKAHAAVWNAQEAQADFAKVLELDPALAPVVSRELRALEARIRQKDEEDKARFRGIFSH

[3] = biological target: Cys residues in primary human T cells (Homo sapiens, UniProt O14933); assay: as above; details: UBE2L6 C98 (O14933)
Sequence of Cys residues in primary human T cells (Homo sapiens, UniProt O14933) (O14933 whole entry): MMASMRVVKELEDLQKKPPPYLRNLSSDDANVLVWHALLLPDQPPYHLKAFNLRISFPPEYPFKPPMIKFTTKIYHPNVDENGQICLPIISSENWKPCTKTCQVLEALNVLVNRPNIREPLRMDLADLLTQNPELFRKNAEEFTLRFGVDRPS

[4] = biological target: T2, Cys residues in primary human T cells (Homo sapiens, UniProt P54136); assay: as above; details: RARS C32 (P54136)
T2 sequence (P54136 1-660): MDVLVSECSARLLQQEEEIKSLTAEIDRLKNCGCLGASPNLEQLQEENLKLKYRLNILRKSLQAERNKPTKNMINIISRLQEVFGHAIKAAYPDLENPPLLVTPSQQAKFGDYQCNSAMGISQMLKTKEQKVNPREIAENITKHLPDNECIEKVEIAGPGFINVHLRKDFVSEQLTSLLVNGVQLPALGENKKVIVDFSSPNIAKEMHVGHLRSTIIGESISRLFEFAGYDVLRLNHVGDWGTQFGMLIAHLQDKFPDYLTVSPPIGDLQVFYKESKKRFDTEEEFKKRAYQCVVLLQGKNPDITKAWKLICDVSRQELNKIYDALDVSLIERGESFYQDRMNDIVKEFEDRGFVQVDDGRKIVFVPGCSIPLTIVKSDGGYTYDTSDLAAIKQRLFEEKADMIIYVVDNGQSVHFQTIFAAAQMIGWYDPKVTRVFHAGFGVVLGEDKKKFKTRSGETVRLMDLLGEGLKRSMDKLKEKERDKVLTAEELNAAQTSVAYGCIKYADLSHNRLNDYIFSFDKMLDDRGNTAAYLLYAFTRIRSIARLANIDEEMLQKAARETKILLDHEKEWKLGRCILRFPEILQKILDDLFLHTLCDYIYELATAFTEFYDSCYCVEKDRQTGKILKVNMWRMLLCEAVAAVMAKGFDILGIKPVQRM

[5] = biological target: Cys residues in primary human T cells (Homo sapiens, UniProt Q8N0Z8); assay: as above; details: PUSL1 C292 (Q8N0Z8); DMF 50 μM 4h
Sequence of Cys residues in primary human T cells (Homo sapiens, UniProt Q8N0Z8) (Q8N0Z8 whole entry): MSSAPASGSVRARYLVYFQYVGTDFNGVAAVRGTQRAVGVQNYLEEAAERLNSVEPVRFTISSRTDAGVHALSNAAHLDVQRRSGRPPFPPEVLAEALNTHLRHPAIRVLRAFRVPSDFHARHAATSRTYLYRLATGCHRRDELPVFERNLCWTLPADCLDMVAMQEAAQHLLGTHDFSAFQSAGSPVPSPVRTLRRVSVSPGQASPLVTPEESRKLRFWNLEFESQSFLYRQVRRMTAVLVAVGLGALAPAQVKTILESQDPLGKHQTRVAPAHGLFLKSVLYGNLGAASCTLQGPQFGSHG

[6] = biological target: T3, Cys residues in primary human T cells (Homo sapiens, UniProt Q96I15); assay: as above; details: SCLY C22 (Q96115)
T3 sequence (Q96I15 1-445): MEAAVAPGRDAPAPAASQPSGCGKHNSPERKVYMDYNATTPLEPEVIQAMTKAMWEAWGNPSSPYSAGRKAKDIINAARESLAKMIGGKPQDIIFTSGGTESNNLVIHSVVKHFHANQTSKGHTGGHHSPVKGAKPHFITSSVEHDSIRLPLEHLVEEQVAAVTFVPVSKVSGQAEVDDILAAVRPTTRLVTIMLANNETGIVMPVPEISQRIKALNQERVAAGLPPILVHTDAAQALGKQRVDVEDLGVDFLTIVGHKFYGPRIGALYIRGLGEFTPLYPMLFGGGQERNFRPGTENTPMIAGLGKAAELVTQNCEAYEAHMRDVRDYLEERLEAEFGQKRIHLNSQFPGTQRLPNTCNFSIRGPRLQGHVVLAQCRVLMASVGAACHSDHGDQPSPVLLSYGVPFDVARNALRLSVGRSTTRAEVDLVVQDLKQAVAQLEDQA

[7] = tested on: Cys residues in primary human T cells; assay: as above; details: 4 h
[8] = tested on: Cys residues in mouse T cells; assay: isoTOP-ABPP of DMF-treated mouse T cells; details: 50 μM, 4 h
Experimental: Spleens were harvested from female mice, perfused with collagenase, and incubated at 37° C. with 5% CO2 for 30 min. After this time, the spleens were homogenized. Cells that passed through a 100 μm cell strainer were collected and washed with RPMI. T cells were isolated from the splenocytes using the EasySep™ Mouse T cell Isolation Kit (19851; […]) according to manufacturer's instructions. Cells were lysed by sonication and diluted to a concentration of 2 mg protein/mL. […] Site-specific engagement of electrophilic compounds was assessed by blockade of IA-alkyne probe labeling. […] Overlapping peptides with the same labeled cysteine (for example, same local sequence around the labeled cysteines but different charge states, MudPIT segment numbers, or tryptic termini) were grouped together, and the median ratio from each group was recorded as the R value of the peptide for that run.

[9] = biological target: RNF214 C655 (Q8ND24) (Homo sapiens, UniProt Q8ND24); assay: Competitive isoTOP-ABPP in situ; details: fragment 2 at 200 μM, MDA-MB-231 cells
Sequence of RNF214 C655 (Q8ND24) (Q8ND24 whole entry, the tested form may be a part): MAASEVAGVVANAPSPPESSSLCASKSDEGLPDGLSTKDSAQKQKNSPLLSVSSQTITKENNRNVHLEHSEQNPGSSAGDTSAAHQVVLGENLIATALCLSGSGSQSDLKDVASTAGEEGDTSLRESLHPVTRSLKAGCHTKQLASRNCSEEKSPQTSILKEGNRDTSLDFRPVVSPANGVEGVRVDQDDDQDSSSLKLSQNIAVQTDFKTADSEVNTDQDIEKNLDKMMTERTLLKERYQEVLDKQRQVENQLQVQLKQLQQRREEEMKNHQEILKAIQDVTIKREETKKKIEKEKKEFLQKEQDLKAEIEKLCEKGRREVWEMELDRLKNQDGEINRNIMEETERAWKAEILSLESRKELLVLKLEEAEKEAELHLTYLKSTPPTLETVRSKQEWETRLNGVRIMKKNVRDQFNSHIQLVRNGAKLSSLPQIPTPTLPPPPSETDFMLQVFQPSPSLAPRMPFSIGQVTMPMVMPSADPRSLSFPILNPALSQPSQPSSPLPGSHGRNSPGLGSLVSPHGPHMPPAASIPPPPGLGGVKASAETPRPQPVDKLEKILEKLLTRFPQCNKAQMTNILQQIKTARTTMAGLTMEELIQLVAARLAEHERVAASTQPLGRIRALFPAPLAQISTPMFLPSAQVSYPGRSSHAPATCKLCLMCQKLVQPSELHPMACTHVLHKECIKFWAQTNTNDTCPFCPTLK

[10] = biological target: CLTC C870 (Q00610) (Homo sapiens, UniProt Q00610); assay: Competitive isoTOP-ABPP in situ; details: fragment 4 at 100 μM, MDA-MB-231 cells
Sequence of CLTC C870 (Q00610) (Q00610 whole entry, the tested form may be a part): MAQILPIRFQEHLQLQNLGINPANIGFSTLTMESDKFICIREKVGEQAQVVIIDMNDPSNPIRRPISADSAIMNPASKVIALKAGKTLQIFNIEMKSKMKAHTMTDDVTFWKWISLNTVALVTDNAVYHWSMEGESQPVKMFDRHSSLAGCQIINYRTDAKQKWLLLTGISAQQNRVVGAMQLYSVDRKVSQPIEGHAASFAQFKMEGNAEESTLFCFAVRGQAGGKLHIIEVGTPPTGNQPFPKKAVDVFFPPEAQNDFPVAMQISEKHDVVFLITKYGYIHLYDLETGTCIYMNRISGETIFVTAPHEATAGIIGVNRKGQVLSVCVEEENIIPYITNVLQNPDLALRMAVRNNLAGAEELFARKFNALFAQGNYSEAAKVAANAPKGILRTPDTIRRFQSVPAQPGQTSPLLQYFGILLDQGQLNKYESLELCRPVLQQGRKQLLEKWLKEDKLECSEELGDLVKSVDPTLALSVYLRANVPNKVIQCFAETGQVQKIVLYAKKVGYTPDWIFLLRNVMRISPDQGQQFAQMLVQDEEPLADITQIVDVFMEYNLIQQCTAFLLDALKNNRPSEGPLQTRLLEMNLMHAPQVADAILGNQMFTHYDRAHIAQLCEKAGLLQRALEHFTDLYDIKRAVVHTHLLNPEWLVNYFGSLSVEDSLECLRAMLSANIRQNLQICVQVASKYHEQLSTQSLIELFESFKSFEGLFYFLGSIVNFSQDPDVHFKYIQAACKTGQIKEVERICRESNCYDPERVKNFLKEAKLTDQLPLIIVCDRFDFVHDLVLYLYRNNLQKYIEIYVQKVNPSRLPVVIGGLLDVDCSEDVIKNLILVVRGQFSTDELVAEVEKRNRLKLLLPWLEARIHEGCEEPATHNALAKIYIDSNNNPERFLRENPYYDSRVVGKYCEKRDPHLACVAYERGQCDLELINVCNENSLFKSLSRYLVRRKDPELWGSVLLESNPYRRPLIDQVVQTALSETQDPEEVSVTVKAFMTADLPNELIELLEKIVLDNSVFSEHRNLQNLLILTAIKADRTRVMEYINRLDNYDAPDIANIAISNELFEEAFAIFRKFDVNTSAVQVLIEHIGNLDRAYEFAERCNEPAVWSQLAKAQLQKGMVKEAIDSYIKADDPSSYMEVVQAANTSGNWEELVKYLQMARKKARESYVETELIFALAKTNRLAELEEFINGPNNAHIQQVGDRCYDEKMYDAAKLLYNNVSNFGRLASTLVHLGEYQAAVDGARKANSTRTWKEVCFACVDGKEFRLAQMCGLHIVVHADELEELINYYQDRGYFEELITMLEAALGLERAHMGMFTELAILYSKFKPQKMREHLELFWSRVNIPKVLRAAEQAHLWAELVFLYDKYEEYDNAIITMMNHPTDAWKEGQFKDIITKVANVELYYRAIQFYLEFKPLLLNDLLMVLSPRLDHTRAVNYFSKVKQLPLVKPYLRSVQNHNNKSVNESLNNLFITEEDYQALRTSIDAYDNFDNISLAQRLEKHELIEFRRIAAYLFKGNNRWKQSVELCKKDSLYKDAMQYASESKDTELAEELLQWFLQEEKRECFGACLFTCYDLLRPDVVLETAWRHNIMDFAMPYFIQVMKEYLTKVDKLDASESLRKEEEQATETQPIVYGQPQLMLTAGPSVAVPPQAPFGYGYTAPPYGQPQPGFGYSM

[11] = biological target: IMPACT C195 (Q9P2X3) (Homo sapiens, UniProt Q9P2X3); assay: Competitive isoTOP-ABPP in situ; details: fragment 4 at 100 μM, MDA-MB-231 cells
Sequence of IMPACT C195 (Q9P2X3) (Q9P2X3 whole entry, the tested form may be a part): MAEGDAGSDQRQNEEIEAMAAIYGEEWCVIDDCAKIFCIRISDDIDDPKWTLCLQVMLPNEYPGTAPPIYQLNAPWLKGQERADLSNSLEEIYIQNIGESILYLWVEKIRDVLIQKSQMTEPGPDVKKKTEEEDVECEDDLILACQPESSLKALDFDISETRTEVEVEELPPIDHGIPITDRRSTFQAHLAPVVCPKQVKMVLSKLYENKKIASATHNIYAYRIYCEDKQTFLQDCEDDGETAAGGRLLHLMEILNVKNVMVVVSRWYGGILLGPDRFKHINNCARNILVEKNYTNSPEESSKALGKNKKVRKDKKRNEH

[12] = biological target: RAI14 C973 (Q9P0K7) (Homo sapiens, UniProt Q9P0K7); assay: Competitive isoTOP-ABPP in situ; details: fragment 4 at 100 μM, MDA-MB-231 cells
Sequence of RAI14 C973 (Q9P0K7) (Q9P0K7 whole entry, the tested form may be a part): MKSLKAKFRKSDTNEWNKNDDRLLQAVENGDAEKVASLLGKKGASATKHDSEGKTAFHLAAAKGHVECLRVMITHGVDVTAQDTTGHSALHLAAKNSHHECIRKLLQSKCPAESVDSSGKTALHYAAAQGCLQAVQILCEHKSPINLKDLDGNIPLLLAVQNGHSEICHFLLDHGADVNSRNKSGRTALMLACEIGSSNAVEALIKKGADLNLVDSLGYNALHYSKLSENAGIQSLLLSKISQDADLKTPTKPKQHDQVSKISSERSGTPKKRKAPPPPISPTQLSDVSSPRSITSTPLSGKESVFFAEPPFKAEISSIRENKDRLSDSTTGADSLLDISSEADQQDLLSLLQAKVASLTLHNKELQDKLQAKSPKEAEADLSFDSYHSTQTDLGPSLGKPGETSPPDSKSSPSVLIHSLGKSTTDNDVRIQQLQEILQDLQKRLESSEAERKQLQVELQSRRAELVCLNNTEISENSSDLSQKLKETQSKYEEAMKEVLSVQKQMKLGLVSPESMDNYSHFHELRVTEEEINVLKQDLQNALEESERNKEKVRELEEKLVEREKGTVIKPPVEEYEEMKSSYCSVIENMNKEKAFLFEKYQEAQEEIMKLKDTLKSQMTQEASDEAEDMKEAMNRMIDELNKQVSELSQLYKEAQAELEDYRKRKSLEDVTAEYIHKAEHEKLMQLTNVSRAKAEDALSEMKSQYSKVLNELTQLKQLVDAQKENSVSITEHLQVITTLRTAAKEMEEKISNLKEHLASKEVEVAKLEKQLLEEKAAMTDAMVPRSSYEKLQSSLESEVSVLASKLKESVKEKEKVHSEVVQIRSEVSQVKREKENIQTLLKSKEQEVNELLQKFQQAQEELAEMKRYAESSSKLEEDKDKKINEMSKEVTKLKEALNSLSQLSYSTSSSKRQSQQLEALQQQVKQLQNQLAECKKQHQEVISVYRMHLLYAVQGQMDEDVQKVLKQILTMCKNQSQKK

## COC(=O)/C=C/C(=O)OC [DMF, dimethyl fumarate]
[1]; DMF 50 μM 1h
  R value (DMSO/DMF): 3.06
[1]; DMF 50 μM 2h
  R value (DMSO/DMF): 4.21
[1]; DMF 50 μM 4h
  R value (DMSO/DMF): 10.77
[2]; DMF 50 μM 2h
  R value (DMSO/DMF): 3.05
[2]; DMF 50 μM 4h
  R value (DMSO/DMF): 6.14
[3]; DMF 10 μM 4h
  R value (DMSO/DMF): 1.49
[3]; DMF 50 μM 1h
  R value (DMSO/DMF): 2.44
[3]; DMF 50 μM 2h
  R value (DMSO/DMF): 2.92
[3]; DMF 50 μM 4h
  R value (DMSO/DMF): 12.55
[4]; DMF 10 μM 4h
  R value (DMSO/DMF): 0.62
[4]; DMF 25 μM 4h
  R value (DMSO/DMF): 4.03
[4]; DMF 50 μM 1h
  R value (DMSO/DMF): 2.58
[4]; DMF 50 μM 2h
  R value (DMSO/DMF): 3.58
[4]; DMF 50 μM 4h
  R value (DMSO/DMF): 5.02
[5]
  R value (DMSO/DMF): 4.68
[6]; DMF 10 μM 4h
  R value (DMSO/DMF): 1.31
[6]; DMF 25 μM 4h
  R value (DMSO/DMF): 2.16
[6]; DMF 50 μM 1h
  R value (DMSO/DMF): 1.9
[6]; DMF 50 μM 2h
  R value (DMSO/DMF): 2.16
[6]; DMF 50 μM 4h
  R value (DMSO/DMF): 4.04
[7]; 10 μM
  DMF-sensitive Cys residues detected: very few
[7]; 50 μM
  number of Cys residues with R value >4 (of more than 2400 quantified): ~40
[8]
  fraction of conserved, quantified DMF-sensitive Cys also blocked (R >4) in mouse T cells: > 80%

## COc1ccc2c(c1)CCCN2C(=O)CCl [compound 2]
[9]
  isoTOP-ABPP reactivity profile (ratio) 2_200 μM_in-situ_231: 6.5

## COc1ccc(C2CC(c3cccs3)=NN2C(=O)CCl)cc1 (stereo not drawn) [compound 4]
[10]
  isoTOP-ABPP reactivity profile (ratio) 4_100 μM_in-situ_231: 2.1
[11]
  isoTOP-ABPP reactivity profile (ratio) 4_100 μM_in-situ_231: 20.0
[12]
  isoTOP-ABPP reactivity profile (ratio) 4_100 μM_in-situ_231: 8.7

Reference: patent publication US10670605B2, “Cysteine reactive probes and uses thereof” (The Scripps Research Institute, priority 2015, dated 2020)
